From ChEMBL document CHEMBL4665622, “Repurposing ibuprofen to control Staphylococcus aureus biofilms” (2019)
Converted amounts (≈) assume the structure as drawn. The source made the active and inactive calls. No cut-off for these calls is given here.

How the values were obtained:
Staphylococcus aureus [1] = assay: Antibiofilm activity against Staphylococcus aureus CECT 976 preform-matured biofilm assessed as increase in biofilm removal at upto 10 times of MIC incubated for 1 hr; type: functional, organism-based
Cell membrane [2] = assay: Effect on surface tension of Staphylococcus aureus CECT 976 assessed as hydrophobicity at MIC incubated for 1 hr (reference value: 34.8 +/- 1.3 mJ/m2); type: subcellular
Cell membrane [3] = assay: Disruption of cytoplasmic membrane integrity in Staphylococcus aureus CECT 976 assessed as potassium ion release at 0.5 times of MIC incubated for 1 hr by flame emission and atomic absorption spectroscopy (reference value: 0 mg/L); type: subcellular
Staphylococcus aureus [4] = assay: Bactericidal activity against Staphylococcus aureus SA1199B assessed as reduction in bacterial growth incubated for 24 hrs by broth microdilution method; type: functional
Cell membrane [5] = assay: Destabilization of cytoplasmic membrane integrity in Staphylococcus aureus CECT 976 at MIC incubated for 1 hr by epifluorescence microscope analysis (reference value: 10.6 %); type: subcellular
Staphylococcus aureus [6] = assay: Antibiofilm activity against Staphylococcus aureus CECT 976 preform-matured biofilm assessed as reduction in CFU at MIC incubated for 24 hrs; type: functional, organism-based
Staphylococcus aureus [7] = assay: Antibacterial activity against Staphylococcus aureus assessed as reduction in bacterial growth at pH 7 incubated for 24 hrs by broth microdilution method; type: functional
Staphylococcus aureus [8] = assay: Bactericidal activity against Staphylococcus aureus RN4220 assessed as reduction in bacterial growth incubated for 24 hrs by broth microdilution method; type: functional
Cell membrane [9] = assay: Effect on surface tension of Staphylococcus aureus CECT 976 assessed as electron donor component at 0.25 times of MIC incubated for 1 hr (reference value: 55 +/- 0.9 mJ/m2); type: subcellular
Staphylococcus aureus [10] = assay: Antibiofilm activity against Staphylococcus aureus RN4220 preform-matured biofilm assessed as increase in biofilm removal at 5 and 10 times of MIC incubated upto 24 hrs relative to control; type: functional; conditions: time hrs <=24
Cell membrane [11] = assay: Disruption of cytoplasmic membrane integrity in Staphylococcus aureus CECT 976 assessed as potassium ion release at MIC incubated for 1 hr by flame emission and atomic absorption spectroscopy (reference value: 0 mg/L); type: subcellular
Staphylococcus aureus [12] = assay: Antibiofilm activity against Staphylococcus aureus XU212 preform-matured biofilm assessed as increase in biofilm inactivation upto 10 times of MIC incubated upto 24 hrs relative to control; type: functional; conditions: time hrs <=24
Cell membrane [13] = assay: Effect on surface tension of Staphylococcus aureus CECT 976 assessed as hydrophobicity at 0.25 times of MIC incubated for 1 hr (reference value: 34.8 +/- 1.3 mJ/m2); type: subcellular
Staphylococcus aureus [14] = assay: Antibacterial activity against Staphylococcus aureus SA1199B assessed as reduction in bacterial growth incubated for 24 hrs by broth microdilution method; type: functional
Staphylococcus aureus [15] = assay: Antibiofilm activity against Staphylococcus aureus XU212 preform-matured biofilm assessed as reduction in CFU upto 10 times of MIC incubated upto 24 hrs relative to control; type: functional; parameters: scale not given: the % may be the effect or the level left; conditions: time hrs <=24
Staphylococcus aureus [16] = assay: Inhibition of cell adhesion in Staphylococcus aureus CECT 976 assessed as decrease in CFU at 10 times of MIC incubated upto 24 hrs relative to control; type: functional; conditions: time hrs <=24
Staphylococcus aureus [17] = assay: Antibiofilm activity against Staphylococcus aureus SA1199B preform-matured biofilm assessed as increase in biofilm removal at 5 and 10 times of MIC incubated upto 24 hrs relative to control; type: functional; conditions: time hrs <=24
Staphylococcus aureus [18] = assay: Antibacterial activity against Staphylococcus aureus CECT 976 assessed as reduction in bacterial growth incubated for 24 hrs by broth microdilution method; type: functional
Cell membrane [19] = assay: Effect on surface tension of Staphylococcus aureus CECT 976 assessed as electron acceptor component at 0.5 times of MIC incubated for 1 hr (reference value: 0.5 +/- 0.1 mJ/m2); type: subcellular
Staphylococcus aureus [20] = assay: Antibiofilm activity against Staphylococcus aureus SA1199B preform-matured biofilm assessed as increase in biofilm removal at MIC incubated upto 24 hrs relative to control; type: functional; conditions: time hrs <=24
Staphylococcus aureus [21] = assay: Antibiofilm activity against Staphylococcus aureus RN4220 preform-matured biofilm assessed as increase in biofilm removal at MIC incubated upto 24 hrs relative to control; type: functional; conditions: time hrs <=24
Staphylococcus aureus [22] = assay: Antibacterial activity against Staphylococcus aureus assessed as reduction in bacterial growth at pH 6 incubated for 24 hrs by broth microdilution method; type: functional
[23] = Antibacterial activity against Paracoccus yeei assessed as reduction in bacterial growth at pH 5 incubated for 24 hrs by broth microdilution method; type: functional
Streptococcus pneumoniae = assay: Inhibition of biofilm formation in Streptococcus pneumoniae incubated for 24 hrs by crystal violet staining based assay relative to control; type: functional
Cell membrane [24] = assay: Destabilization of cytoplasmic membrane integrity in Staphylococcus aureus CECT 976 at 0.5 times of MIC incubated for 1 hr by epifluorescence microscope analysis (reference value: 10.6 %); type: subcellular
Cell membrane [25] = assay: Disruption of cytoplasmic membrane integrity in Staphylococcus aureus CECT 976 assessed as potassium ion release at MBC incubated for 1 hr by flame emission and atomic absorption spectroscopy (reference value: 0 mg/L); type: subcellular
Cell membrane [26] = assay: Effect on surface tension of Staphylococcus aureus CECT 976 assessed as hydrophobicity at 0.5 times of MIC incubated for 1 hr (reference value: 34.8 +/- 1.3 mJ/m2); type: subcellular
Staphylococcus aureus [27] = assay: Antibiofilm activity against Staphylococcus aureus CECT 976 preform-matured biofilm assessed as increase in biofilm removal at MIC incubated for 6 hrs relative to control; type: functional
Staphylococcus aureus [28] = assay: Bactericidal activity against Staphylococcus aureus CECT 976 incubated for 24 hrs by broth microdilution method; type: functional
Cell membrane [29] = assay: Effect on surface tension of Staphylococcus aureus CECT 976 assessed as Lifshitz-van der Waals at 0.25 times of MIC incubated for 1 hr (reference value: 40.5 +/- 0.0 mJ/m2); type: subcellular
Escherichia coli = assay: Inhibition of biofilm formation in Escherichia coli incubated for 24 hrs by crystal violet staining based assay relative to control; type: functional

Activity (Cell membrane [2]): 30.1 mJ/m2
Activity (Cell membrane [3]): 0.51 mg/L
Activity (Cell membrane [5]): 97.9%
MIC (Staphylococcus aureus [7]): > 600 µg/mL
Activity (Cell membrane [9]): 48.8 mJ/m2
Activity (Cell membrane [11]): 0.49 mg/L
Activity (Cell membrane [13]): 27.3 mJ/m2
MIC (Staphylococcus aureus [14]): 1000 µg/mL (≈ 4.85 mM)
MIC (Staphylococcus aureus [18]): 500 µg/mL (≈ 2.42 mM)
Activity (Cell membrane [19]): 1.1 mJ/m2
MIC (Staphylococcus aureus [22]): 350 µg/mL (≈ 1.7 mM)
MIC [23]: 1250 µg/mL (≈ 6.06 mM)
Activity (Cell membrane [24]): 99.8%
Activity (Cell membrane [25]): 0.54 mg/L
Activity (Cell membrane [26]): 27.9 mJ/m2
Activity (Cell membrane [29]): 39.5 mJ/m2
SMILES: CC(C)Cc1ccc(C(C)C(=O)O)cc1 (stereo unspecified) [IBUPROFEN]
inhibition (Staphylococcus aureus [1]): Dose-dependent effect
MBC (Staphylococcus aureus [4]): 1600 µg/mL (≈ 7.76 mM)
inhibition (Staphylococcus aureus [6]): Active
MBC (Staphylococcus aureus [8]): > 2000 µg/mL
Activity (Staphylococcus aureus [10]): 0%
Activity (Staphylococcus aureus [12]): <=55%
Activity (Staphylococcus aureus [15]): 100%
inhibition (INH) (Staphylococcus aureus [16]): 100%
Activity (Staphylococcus aureus [17]): 0%
Activity (Staphylococcus aureus [20]): <=14%
Activity (Staphylococcus aureus [21]): <=14%
inhibition (INH) (Streptococcus pneumoniae): 37%
inhibition (INH) (Staphylococcus aureus [27]): 42%
MBC (Staphylococcus aureus [28]): 1400 µg/mL (≈ 6.79 mM)
inhibition (INH) (Escherichia coli): 37%
